Relative viability data for one cell line are collected here from the supplement of paper PMC10307832.

Common to all, as to experiment: relative viability (nuclei count vs DMSO), 5 days (fraction); higher = more cells survive
Compound in the assay “IPA-3 + Trametinib”: C1=CC=C2C(=C1)C=CC(=C2SSC3=C(C=CC4=CC=CC=C43)O)O [IPA-3] + CC(=O)Nc1cccc(-n2c(=O)n(C3CC3)c(=O)c3c(Nc4ccc(I)cc4F)n(C)c(=O)c(C)c32)c1 [Trametinib] (partner 0.02 µM)
Put shortly: (§1)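 Lung cancer cell lines were pin-tool dosed in 1536-well plates on the day after seeding, with either a lone drug or a fixed anchor-drug dose plus five library-drug doses (not always all listed) in √10 steps. Nuclei were counted on 4× images after 5 days. Relative viability is the ratio of treated-well to vehicle-well nuclei counts, with each value a median of duplicate plates.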

Compound in the assay “RAF265 + Bortezomib”: Cn1c(Nc2ccc(C(F)(F)F)cc2)nc2cc(Oc3ccnc(-c4ncc(C(F)(F)F)[nH]4)c3)ccc21 [RAF265] + CC(C)C[C@H](NC(=O)[C@H](Cc1ccccc1)NC(=O)c1cnccn1)B(O)O [Bortezomib] (partner 0.002 µM)
Put shortly:
as §1

Compound in the assay “RAF265 + Crizotinib”: Cn1c(Nc2ccc(C(F)(F)F)cc2)nc2cc(Oc3ccnc(-c4ncc(C(F)(F)F)[nH]4)c3)ccc21 [RAF265] + C[C@@H](Oc1cc(-c2cnn(C3CCNCC3)c2)cnc1N)c1c(Cl)ccc(F)c1Cl [Crizotinib] (partner 1 µM)
The method, boiled down:
as §1

Compound in the assay “RAF265 + Dasatinib”: Cn1c(Nc2ccc(C(F)(F)F)cc2)nc2cc(Oc3ccnc(-c4ncc(C(F)(F)F)[nH]4)c3)ccc21 [RAF265] + Cc1nc(Nc2ncc(C(=O)Nc3c(C)cccc3Cl)s2)cc(N2CCN(CCO)CC2)n1 [Dasatinib] (partner 0.075 µM)
Put shortly:
as §1

Take UMC-11: the relative viability with IPA-3 + Trametinib (first compound 0.2 µM) stood at 0.804; with IPA-3 + Trametinib (first compound 0.6325 µM), 0.666; in the assay with IPA-3 + Trametinib (first compound 2 µM), 0.677; with IPA-3 + Trametinib (first compound 6.325 µM), 0.6; in the assay with IPA-3 + Trametinib (first compound 20 µM), 0.794; in the assay with RAF265 + Bortezomib (first compound 0.01 µM) it was 0.624. In addition, the relative viability with RAF265 + Bortezomib (first compound 0.03162 µM) stood at 0.724; with RAF265 + Bortezomib (first compound 0.1 µM), 0.758; in the assay with RAF265 + Bortezomib (first compound 0.3162 µM), 0.745; in the assay with RAF265 + Bortezomib (first compound 1 µM), 0.537; with RAF265 + Crizotinib (first compound 0.01 µM), 0.676; with RAF265 + Crizotinib (first compound 0.03162 µM) it was 0.604. For the same cell line, the relative viability amounted to 0.602 with RAF265 + Crizotinib (first compound 0.1 µM); 0.648 with RAF265 + Crizotinib (first compound 0.3162 µM); 0.501 with RAF265 + Crizotinib (first compound 1 µM); 0.443 in the assay with RAF265 + Dasatinib (first compound 0.01 µM); 0.442 with RAF265 + Dasatinib (first compound 0.03162 µM); 0.457 with RAF265 + Dasatinib (first compound 0.1 µM). The relative viability with RAF265 + Dasatinib (first compound 0.3162 µM) was determined as 0.444; with RAF265 + Dasatinib (first compound 1 µM) it was 0.4.
